# Source: PMC5895699, “Catalytically active inclusion bodies of L-lysine decarboxylase from E. coli for 1,5-diaminopentane production” (Scientific Reports, 2018)
# Target: T1, EcLDCc-CatIBs (EcLDCc-TDoT fusion; constitutive L-lysine decarboxylase from E. coli) (Escherichia coli, UniProt P52095)
# T1 construct: gene ldcC; full-length EcLDCc with C-terminal 3xGGGS linker and TDoT coiled-coil tag (tetrabrachion, Staphylothermus marinus), pET28, E. coli BL21(DE3)
# T1 sequence (P52095 1-713): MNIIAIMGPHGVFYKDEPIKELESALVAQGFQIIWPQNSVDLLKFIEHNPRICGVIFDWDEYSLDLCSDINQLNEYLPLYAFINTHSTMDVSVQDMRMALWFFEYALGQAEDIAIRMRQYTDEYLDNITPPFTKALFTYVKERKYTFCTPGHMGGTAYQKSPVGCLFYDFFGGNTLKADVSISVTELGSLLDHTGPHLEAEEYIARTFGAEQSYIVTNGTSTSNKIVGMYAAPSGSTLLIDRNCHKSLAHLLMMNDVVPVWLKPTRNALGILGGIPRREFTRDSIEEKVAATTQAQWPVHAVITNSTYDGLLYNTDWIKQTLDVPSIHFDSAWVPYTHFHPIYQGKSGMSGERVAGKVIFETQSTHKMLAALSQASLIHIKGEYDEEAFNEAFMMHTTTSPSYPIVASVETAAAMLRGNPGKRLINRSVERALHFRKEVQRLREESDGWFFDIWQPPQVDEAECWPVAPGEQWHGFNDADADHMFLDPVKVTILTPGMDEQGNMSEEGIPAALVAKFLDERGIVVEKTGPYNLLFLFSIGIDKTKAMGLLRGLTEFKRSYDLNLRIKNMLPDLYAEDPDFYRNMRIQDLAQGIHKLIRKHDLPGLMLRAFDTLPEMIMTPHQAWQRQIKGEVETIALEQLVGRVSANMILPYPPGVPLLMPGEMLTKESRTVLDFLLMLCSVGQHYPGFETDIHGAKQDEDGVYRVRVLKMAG
# Assay: HPLC of […],5-diaminopentane formed, OPA derivatisation
# Format: biochemical
# Settings: 50 mM KPi buffer, 10 mM L-lysine, 30 °C, pH 7-9 (general range; pH 9 differs); CatIB enzyme as prepared, not PLP-depleted
compound,measurement,value
Cc1ncc(COP(=O)(O)O)c(C=O)c1O [pyridoxal-5′-phosphate],% activity increase at 0.1 mM PLP,5–15%
